Experiments:
Test in all cases: Test A pre-/postemergence herbicide test
barnyardgrass = assay type: in vivo, Echinochloa crus-galli
Source text: (§1) Seeds of plant species selected from barnyardgrass (Echinochloa crus-galli (L.) Beauv.), downy bromegrass (Bromus tectorum L.), large crabgrass (Digitaria sanguinalis (L.) Scop.), giant foxtail (Setaria faberi Herrm.), morningglory (Ipomoea spp.), redroot pigweed (Amaranthus retroflexus L.) and velvetleaf (Abutilon theophrasti Medik.) were planted into a sandy loam soil and treated preemergence with a directed soil spray using test chemicals formulated in a non-phytotoxic solvent mixture which included a surfactant. At the same time plants selected from these species were also treated postemergence by spraying to runoff with test chemicals formulated.
(§2) Plants ranged in height from 2 to 10 cm and were in the one- to two-leaf stage for the postemergence treatment. Treated plants and untreated controls were maintained in a greenhouse for approximately ten days, after which time all treated plants were compared to untreated controls and visually evaluated for injury. Plant response ratings, summarized in Table A, are based on a 0 to 100 scale where 0 is no effect and 100 is complete control. A dash (-) response means no test results.

large crabgrass = assay type: in vivo, Digitaria sanguinalis
Source text: as §1, §2

giant foxtail = assay type: in vivo, Setaria faberi
Source text: as §1, §2

morningglory = assay type: in vivo, Ipomoea spp.
Source text: as §1, §2

redroot pigweed = assay type: in vivo, Amaranthus retroflexus
Source text: as §1, §2

velvetleaf = assay type: in vivo, Abutilon theophrasti
Source text: as §1, §2

[1] = Postemergence, 500 g ai/ha, 0 to 100 scale, 0 no effect, 100 complete control
[2] = Postemergence, 2000 g ai/ha, 0 to 100 scale, 0 no effect, 100 complete control
[3] = Preemergence, 500 g ai/ha, visual rating, 0 to 100 scale (0 no effect, 100 complete control)
[4] = Preemergence, 2000 g ai/ha, 0 to 100 scale, 0 no effect, 100 complete control
[5] = Preemergence, 2000 g ai/ha, visual rating, 0 to 100 scale (0 no effect, 100 complete control)
[6] = Postemergence, 125 g ai/ha, 0 to 100 scale, 0 no effect, 100 complete control
[7] = preemergence, 125 g ai/ha, visual injury, 0 to 100 scale (0 no effect, 100 complete control)
[8] = preemergence, 500 g ai/ha, visual injury, 0 to 100 scale (0 no effect, 100 complete control)

SMILES	Plant response rating, Barnyardgrass (barnyardgrass; [2])	Barnyardgrass plant response rating (barnyardgrass; [3])	Plant response rating, Crabgrass, Large (large crabgrass; [2])	Crabgrass, Large plant response rating (large crabgrass; [3])	Plant response rating, Foxtail, Giant (giant foxtail; [2])	Foxtail, Giant plant response rating (giant foxtail; [3])	Plant response rating, Morningglory (morningglory; [2])	Morningglory plant response rating (morningglory; [3])	Plant response rating, Pigweed (redroot pigweed; [2])	Pigweed plant response rating (redroot pigweed; [3])	Plant response rating, Velvetleaf (velvetleaf; [2])	Velvetleaf plant response rating (velvetleaf; [3])	Barnyardgrass plant response rating (barnyardgrass; [1])	Crabgrass, Large plant response rating (large crabgrass; [1])	Foxtail, Giant plant response rating (giant foxtail; [1])	Morningglory plant response rating (morningglory; [1])	Pigweed plant response rating (redroot pigweed; [1])	Velvetleaf plant response rating (velvetleaf; [1])	further results
Cn1nc(C(C)(C)C)cc1C(=O)Nc1cccc2c1CNC2=O [Compound 53]	0	0	0	0	0	0	0	0	0	30	0	0							Plant response rating, Barnyardgrass (barnyardgrass; [1]): 0; Barnyardgrass plant response rating (barnyardgrass; [4]): 10; Plant response rating, Crabgrass, Large (large crabgrass; [1]): 5; Crabgrass, Large plant response rating (large crabgrass; [4]): 40; Plant response rating, Foxtail, Giant (giant foxtail; [1]): 0; Foxtail, Giant plant response rating (giant foxtail; [4]): 0; Plant response rating, Morningglory (morningglory; [1]): 0; Morningglory plant response rating (morningglory; [4]): 0; Plant response rating, Pigweed (redroot pigweed; [1]): 0; Pigweed plant response rating (redroot pigweed; [4]): 40; Velvetleaf plant response rating (velvetleaf; [4]): 0
CC(=NO)c1cccc(NC(=O)c2cc(C(F)(F)F)nn2C)c1 [Compound 103]	75	55	30	35	30	0	35	0	100	80	45	20	45	15	10	25	85	10	Barnyardgrass plant response rating (barnyardgrass; [5]): 85; Crabgrass, Large plant response rating (large crabgrass; [5]): 55; Foxtail, Giant plant response rating (giant foxtail; [5]): 15; Morningglory plant response rating (morningglory; [5]): 10; Pigweed plant response rating (redroot pigweed; [5]): 95; Velvetleaf plant response rating (velvetleaf; [5]): 20
CCNC(=O)c1ccc(F)c(NC(=O)c2nc(C(C)(C)C)nn2CC)c1 [Compound 447]													70	25	40	10	50	30	Barnyardgrass plant response rating (barnyardgrass; [6]): 25; Barnyardgrass plant response rating (barnyardgrass; [7]): 20; Barnyardgrass plant response rating (barnyardgrass; [8]): 60; Crabgrass, Large plant response rating (large crabgrass; [6]): 10; Crabgrass, Large plant response rating (large crabgrass; [7]): 0; Crabgrass, Large plant response rating (large crabgrass; [8]): 35; Foxtail, Giant plant response rating (giant foxtail; [6]): 10; Foxtail, Giant plant response rating (giant foxtail; [7]): 10; Foxtail, Giant plant response rating (giant foxtail; [8]): 45; Morningglory plant response rating (morningglory; [6]): 5; Morningglory plant response rating (morningglory; [7]): 0; Morningglory plant response rating (morningglory; [8]): 0; Pigweed plant response rating (redroot pigweed; [6]): 40; Pigweed plant response rating (redroot pigweed; [7]): 10; Pigweed plant response rating (redroot pigweed; [8]): 50; Velvetleaf plant response rating (velvetleaf; [6]): 10; Velvetleaf plant response rating (velvetleaf; [7]): 0; Velvetleaf plant response rating (velvetleaf; [8]): 0

From patent US20060069132A1, “Azolecarboxamide herbicides” (priority 2004, published 2006)
